pIC50, pKd: −log10 of the molar value. Calls of active or inactive are those of the source. The rule behind the calls is not given here.
What was measured:
CDK2/Cyclin A2 = CDK2/Cyclin A2 (Homo sapiens, UniProt P24941); assay: Inhibition of CDK2/cyclin A2 (unknown origin) in presence of [32P]gammaATP by image analyser; type: protein-complex assay
MOLM-13 = assay: Antiproliferative activity against human MOLM-13 cells assessed as cell death measured after 72 hrs by resazurin dye based assay; type: functional; settings: MOLM-13, 72 h
MOLM-14 = assay: Antiproliferative activity against human MOLM-14 cells harboring F691L mutant assessed as cell death measured after 72 hrs by resazurin dye based assay; type: functional; settings: MOLM-14, 72 h
THP-1 = assay: Antiproliferative activity against human THP-1 cells assessed as cell death measured after 72 hrs by resazurin dye based assay; type: functional; settings: THP-1, 72 h
U-937 = assay: Antiproliferative activity against human U-937 cells assessed as cell death measured after 72 hrs by resazurin dye based assay; type: functional; settings: U-937, 72 h
[1] = system: Receptor-type tyrosine-protein kinase FLT3 (Homo sapiens), P36888 [D835Y]; assay: Inhibition of FLT3 D835Y (unknown origin) assessed as residual activity at 500 nM
[2] = target: Leucine-rich repeat serine/threonine-protein kinase 2 (Homo sapiens) (UniProt Q5S007); assay: Inhibition of LRRK2 (unknown origin) assessed as residual activity at 500 nM
[3] = target: NT-3 growth factor receptor (Homo sapiens) (UniProt Q16288); assay: Inhibition of TRKC (unknown origin) assessed as residual activity at 500 nM
[4] = target: Receptor-type tyrosine-protein kinase FLT3 (Homo sapiens, UniProt P36888, D835V); assay: Binding affinity to human partial length FLT3 ITD D835V mutant expressed in mammalian expression system by KdELECT Discover assay
MV4-11 [5] = assay: Induction of apoptosis in human MV4-11 cells assessed as caspase 3 activation using fluorescent substrate Ac-DEVD-AMC at 100 nM incubated for 24 hrs by Western blot analysis; type: functional, cell-based
MV4-11 [6] = assay: Induction of apoptosis in human MV4-11 cells assessed as caspase 7 activation using fluorescent substrate Ac-DEVD-AMC at 100 nM incubated for 24 hrs by Western blot analysis; type: functional, cell-based
MV4-11 [7] = assay: Induction of apoptosis in human MV4-11 cells assessed as increase in cleaved PARP1 level at 100 nM incubated for 24 hrs by Western blot analysis; type: functional, cell-based
MV4-11 [8] = assay: Induction of apoptosis in human MV4-11 cells assessed as decrease in MCL1 level at 100 nM incubated for 24 hrs by Western blot analysis; type: functional, cell-based

Chain of NT-3 growth factor receptor (Homo sapiens) (Q16288 32-839 limits assumed): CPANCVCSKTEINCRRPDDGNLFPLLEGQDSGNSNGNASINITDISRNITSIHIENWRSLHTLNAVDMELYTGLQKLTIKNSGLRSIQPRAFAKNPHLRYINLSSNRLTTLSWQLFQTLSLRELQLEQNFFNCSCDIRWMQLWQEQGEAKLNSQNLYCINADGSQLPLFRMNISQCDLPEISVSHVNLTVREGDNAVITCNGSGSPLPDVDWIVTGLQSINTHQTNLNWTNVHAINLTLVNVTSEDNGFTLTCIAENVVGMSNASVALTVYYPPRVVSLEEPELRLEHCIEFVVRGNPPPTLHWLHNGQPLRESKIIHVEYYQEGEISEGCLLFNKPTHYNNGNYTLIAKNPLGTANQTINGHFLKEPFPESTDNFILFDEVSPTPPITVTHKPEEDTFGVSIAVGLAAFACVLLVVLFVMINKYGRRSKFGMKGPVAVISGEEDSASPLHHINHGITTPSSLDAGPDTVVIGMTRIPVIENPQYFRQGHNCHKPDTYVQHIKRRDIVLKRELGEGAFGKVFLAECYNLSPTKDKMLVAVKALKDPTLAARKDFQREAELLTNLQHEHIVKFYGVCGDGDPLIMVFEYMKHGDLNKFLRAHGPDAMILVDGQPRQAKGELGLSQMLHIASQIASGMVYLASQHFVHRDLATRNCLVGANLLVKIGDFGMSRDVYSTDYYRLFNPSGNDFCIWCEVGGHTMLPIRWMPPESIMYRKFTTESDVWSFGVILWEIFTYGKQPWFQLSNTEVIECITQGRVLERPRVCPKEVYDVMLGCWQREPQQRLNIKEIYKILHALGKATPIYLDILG
Chain of Leucine-rich repeat serine/threonine-protein kinase 2 (Homo sapiens) (Q5S007 whole entry): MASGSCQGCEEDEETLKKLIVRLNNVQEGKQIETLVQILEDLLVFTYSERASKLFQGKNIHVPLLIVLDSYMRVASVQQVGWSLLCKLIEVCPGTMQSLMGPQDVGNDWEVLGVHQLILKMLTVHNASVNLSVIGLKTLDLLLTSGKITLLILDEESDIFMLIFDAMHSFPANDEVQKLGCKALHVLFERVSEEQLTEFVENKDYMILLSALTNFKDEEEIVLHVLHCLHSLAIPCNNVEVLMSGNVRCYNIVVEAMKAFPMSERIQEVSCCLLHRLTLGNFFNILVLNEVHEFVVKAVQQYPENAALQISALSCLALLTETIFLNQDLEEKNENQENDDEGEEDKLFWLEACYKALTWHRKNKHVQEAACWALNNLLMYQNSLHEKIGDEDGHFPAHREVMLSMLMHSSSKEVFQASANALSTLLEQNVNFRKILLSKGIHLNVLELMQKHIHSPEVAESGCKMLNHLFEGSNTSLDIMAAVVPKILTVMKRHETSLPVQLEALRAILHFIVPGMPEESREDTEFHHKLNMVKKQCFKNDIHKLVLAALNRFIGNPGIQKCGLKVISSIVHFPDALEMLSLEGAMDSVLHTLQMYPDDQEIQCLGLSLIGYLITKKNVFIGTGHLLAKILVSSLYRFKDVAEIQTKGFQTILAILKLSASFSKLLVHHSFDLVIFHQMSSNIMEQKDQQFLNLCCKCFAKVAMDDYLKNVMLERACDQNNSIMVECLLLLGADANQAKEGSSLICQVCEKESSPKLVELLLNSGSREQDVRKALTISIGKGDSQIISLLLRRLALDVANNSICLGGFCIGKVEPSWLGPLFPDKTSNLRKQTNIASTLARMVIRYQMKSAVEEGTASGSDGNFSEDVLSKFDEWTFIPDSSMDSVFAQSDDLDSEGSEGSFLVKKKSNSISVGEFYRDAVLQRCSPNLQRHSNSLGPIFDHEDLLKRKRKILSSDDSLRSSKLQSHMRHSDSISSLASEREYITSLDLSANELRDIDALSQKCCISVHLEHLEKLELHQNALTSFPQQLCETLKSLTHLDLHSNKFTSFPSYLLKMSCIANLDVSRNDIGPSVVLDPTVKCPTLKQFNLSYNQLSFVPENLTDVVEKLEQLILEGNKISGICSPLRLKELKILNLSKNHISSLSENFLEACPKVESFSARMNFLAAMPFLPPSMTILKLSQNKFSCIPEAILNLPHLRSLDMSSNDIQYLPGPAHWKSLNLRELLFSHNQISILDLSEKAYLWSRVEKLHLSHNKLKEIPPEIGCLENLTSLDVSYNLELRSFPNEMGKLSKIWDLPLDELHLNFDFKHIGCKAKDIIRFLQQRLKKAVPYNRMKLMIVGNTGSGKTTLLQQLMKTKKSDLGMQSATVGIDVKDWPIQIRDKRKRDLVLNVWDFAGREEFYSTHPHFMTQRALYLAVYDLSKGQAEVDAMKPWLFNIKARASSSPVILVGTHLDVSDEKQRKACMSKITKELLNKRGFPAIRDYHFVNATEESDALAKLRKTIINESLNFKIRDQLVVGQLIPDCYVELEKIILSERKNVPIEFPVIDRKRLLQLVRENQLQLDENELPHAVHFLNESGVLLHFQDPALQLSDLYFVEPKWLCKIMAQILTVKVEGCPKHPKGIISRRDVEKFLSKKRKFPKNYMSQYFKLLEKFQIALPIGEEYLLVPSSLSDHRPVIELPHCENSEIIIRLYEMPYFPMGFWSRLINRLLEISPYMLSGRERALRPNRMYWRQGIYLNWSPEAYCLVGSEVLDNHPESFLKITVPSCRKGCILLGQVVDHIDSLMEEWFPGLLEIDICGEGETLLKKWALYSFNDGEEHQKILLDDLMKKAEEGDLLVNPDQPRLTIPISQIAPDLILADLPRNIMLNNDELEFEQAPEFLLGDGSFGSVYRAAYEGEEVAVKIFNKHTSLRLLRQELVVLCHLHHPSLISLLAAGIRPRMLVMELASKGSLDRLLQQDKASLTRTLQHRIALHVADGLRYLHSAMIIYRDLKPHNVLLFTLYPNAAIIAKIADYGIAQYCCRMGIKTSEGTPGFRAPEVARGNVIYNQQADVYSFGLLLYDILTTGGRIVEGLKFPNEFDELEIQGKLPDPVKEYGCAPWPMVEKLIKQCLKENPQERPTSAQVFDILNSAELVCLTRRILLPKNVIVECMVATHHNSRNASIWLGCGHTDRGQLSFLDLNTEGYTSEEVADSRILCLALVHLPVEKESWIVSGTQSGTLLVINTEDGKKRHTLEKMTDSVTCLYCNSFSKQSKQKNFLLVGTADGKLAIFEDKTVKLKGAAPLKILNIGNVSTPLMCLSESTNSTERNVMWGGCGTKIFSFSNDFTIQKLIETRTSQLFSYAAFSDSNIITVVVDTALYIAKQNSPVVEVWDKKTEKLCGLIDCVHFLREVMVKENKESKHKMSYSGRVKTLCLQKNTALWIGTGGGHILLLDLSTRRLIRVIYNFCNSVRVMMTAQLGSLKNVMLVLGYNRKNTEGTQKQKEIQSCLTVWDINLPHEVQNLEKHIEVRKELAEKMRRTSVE

SMILES: Cc1n[nH]c2ccc3nc(-c4c[nH]nc4C(F)(F)F)c4c(c3c12)CCCC4
- pIC50 (CDK2/Cyclin A2): 6.37
- pIC50 (MOLM-13): 7.17
- pIC50 (MOLM-14): 7.28
- pIC50 (THP-1): 5.17
- pIC50 (U-937): 5.54
- Activity [1]: < 2.5%
- Activity [2]: 4%
- Activity [3]: 4%
- pKd [4]: 9.14
- Activity (MV4-11 [5]): Active
- Activity (MV4-11 [6]): Active
- Activity (MV4-11 [7]): Active
- Activity (MV4-11 [8]): Active

From ChEMBL document CHEMBL4834472 (J Med Chem, 2021)
